3 molecules from patent US9181232B2, “Difluoro-hexahydro-cyclopentaoxazinyls and difluoro-hexahydro-benzooxazinyls as BACE1 inhibitors” (Hoffmann-La Roche Inc., priority 2012, dated 2015) can be followed below.

Bounds are passed on as bounds.

In one series the target is T1, CYP2D6 (Homo sapiens, UniProt P10635).
T1 construct: 0.2 mg/ml pooled human liver microsomes; from tissue; host or cells: pooled human liver microsomes
The series is described as follows: CYP inhibition assay, human liver microsomes, dextromethorphan. Conditions: read-out: CYP IC50 2D6. It counts as in vitro ADME. The protocol: Inhibition of cytochromes P450 (CYPs) 2C9, 2D6 and 3A4 was assessed using human liver microsomes and CYP-selective substrate metabolism reactions. 50 μl incubations were made up containing (finally) 0.2 mg/ml pooled human liver microsomes, 5 μM substrate (diclofenac for CYP2C9 [4′hydroxylase], dextromethorphan for CYP2D6 [O-demethylase] or midazolam for CYP3A4 [1′hydroxylase]), 0.25 μL DMSO containing test inhibitor and NADPH regenerating system. Test inhibitor concentrations of 50, 16.7, 5.6, 1.9, 0.6 and 0.2 μM were assessed in singlicate. Incubations were prewarmed to 37° C. for 10 minutes before initiation by addition of NADPH regenerating system. Incubations were quenched after 5 minutes (20 minutes for dextromethorphan) by addition of 50 μl cold acetonitrile containing 20 ng/ml 4-OH-diclofenac-13C6, 20 ng/mL dextrorphan-D3 and 20 ng/mL 1-OH-midazolam-D4. Quenched incubates were stored at −20° C. for at least 1 hour before centrifugation (20,000×g, 20 minutes). Supernatants were removed and diluted 1:1 with water prior to analysis using a RapidFire sample injector system and API4000 mass spectrometer. Peak areas for substrate, metabolite and stable-labelled metabolite standard were determined using MS/MS. The peak area ratios between the metabolite generated by the enzymatic reaction and the internal standard were used in subsequent calculations. The percentage of (DMSO) control activity was calculated for each incubate and IC50 values estimated by non-linear regression. Sulfaphenazole, quinidine or ketoconazole were tested in each CYP2C9, CYP2D6 or CYP3A4 inhibition experiment, respectively, to ensure assay sensitivity and reproducibility. (Validated assays for human cytochrome P450 activities^11)

The target in the next series is T2, P-gp (human MDR1) (Homo sapiens, UniProt P08183).
T2 construct: host or cells: LLC-PK1 (porcine kidney epithelial) transfected with human MDR1 (L-MDR1)
T2 sequence (P08183 whole entry): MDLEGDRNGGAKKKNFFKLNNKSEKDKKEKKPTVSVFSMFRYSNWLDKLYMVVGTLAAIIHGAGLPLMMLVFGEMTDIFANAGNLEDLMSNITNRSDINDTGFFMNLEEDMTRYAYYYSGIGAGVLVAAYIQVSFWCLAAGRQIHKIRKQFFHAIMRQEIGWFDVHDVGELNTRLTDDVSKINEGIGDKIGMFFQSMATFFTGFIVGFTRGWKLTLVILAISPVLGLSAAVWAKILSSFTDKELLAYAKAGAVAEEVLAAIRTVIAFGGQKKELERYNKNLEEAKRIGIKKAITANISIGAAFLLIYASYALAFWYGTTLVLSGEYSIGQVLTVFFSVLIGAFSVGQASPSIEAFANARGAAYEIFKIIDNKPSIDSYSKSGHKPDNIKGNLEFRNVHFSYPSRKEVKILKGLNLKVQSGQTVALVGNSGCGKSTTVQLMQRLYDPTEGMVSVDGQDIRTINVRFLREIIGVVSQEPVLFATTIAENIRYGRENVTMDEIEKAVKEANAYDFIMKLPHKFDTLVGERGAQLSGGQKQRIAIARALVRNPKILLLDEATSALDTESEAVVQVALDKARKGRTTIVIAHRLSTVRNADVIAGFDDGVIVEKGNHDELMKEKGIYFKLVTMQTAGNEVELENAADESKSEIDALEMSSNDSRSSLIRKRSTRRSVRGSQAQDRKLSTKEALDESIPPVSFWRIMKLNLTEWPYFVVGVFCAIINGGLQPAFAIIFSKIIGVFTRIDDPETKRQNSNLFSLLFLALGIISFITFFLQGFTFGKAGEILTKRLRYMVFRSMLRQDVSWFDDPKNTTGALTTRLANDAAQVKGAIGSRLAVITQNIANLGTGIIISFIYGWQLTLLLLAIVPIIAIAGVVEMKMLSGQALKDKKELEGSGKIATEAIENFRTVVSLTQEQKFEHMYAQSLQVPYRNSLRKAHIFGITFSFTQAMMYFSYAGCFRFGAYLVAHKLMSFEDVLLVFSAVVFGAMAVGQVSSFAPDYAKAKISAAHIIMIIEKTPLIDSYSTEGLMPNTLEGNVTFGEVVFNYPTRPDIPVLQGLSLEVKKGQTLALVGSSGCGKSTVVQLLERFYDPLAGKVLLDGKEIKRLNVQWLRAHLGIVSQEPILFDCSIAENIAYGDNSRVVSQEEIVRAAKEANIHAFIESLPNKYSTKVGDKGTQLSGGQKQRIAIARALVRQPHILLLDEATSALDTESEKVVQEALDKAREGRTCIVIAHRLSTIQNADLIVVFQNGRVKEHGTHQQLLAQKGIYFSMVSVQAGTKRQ
The series is described as follows: P-gp (P-Glycoprotein) assay, bidirectional transcellular transport in LLC-PK1 and L-MDR1 cells. To be noted: read-out: P-gp human, efflux ratio: substrate category. It counts as in vitro ADME. The protocol:
The LLC-PK1 cell line (ATCC #CL-101) is a porcine kidney epithelial cell line. The MDR1 (Human multidrug resistance protein 1) transfected cell lines were obtained from Dr. A. Schinkel, The Netherlands Cancer Institute (Amsterdam, The Netherlands). All cell lines were cultured on permeable inserts (96-insert plates Millipore, 0.11 cm^2 area, pore size 0.4 μm) at 0.73*10^6 cells/ml. Transport measurements were performed at day 4 after seeding. Tightness of the cell monolayer was controlled via the permeability of the extracellular marker lucifer yellow (10 μM).
Bidirectional transcellular transport using LLC-PK1 and L-MDR1 LLC-PK1 cells exogenously expressing the human MDR1)
The experiments were performed on a TECAN automated liquid handling system. […] Concentrations of substrate in both compartments were determined by scintillation counting (digoxin) or by LC-MS/MS. The extracellular marker (lucifer yellow) was quantified using a spectrafluor plus reader at 430/535 nm (Ex/Em). In each experiment 3 different inserts were used for each condition and a mean was calculated. […]
Where Papp, A, C0, and dQ/dt represent the apparent permeability, the filter surface area, the initial concentration, and the amount transported per time period, respectively. Papp values were calculated on the basis of a single time point (2 h).
Transport efflux ratios (ER) were calculated as follows: […]

Another series can be described thus: in vivo effect. Conditions: @ 30 mg/kg p.o.
A further series addresses T3, hERG channel (Homo sapiens, UniProt Q12809).
T3 construct: expressed in transfected cells; host or cells: CHO cells
The series is described as follows: PatchXpress hERG inhibition assay. It counts as cell-based. Conditions: @ 1 μM; CHO cells expressing hERG. The protocol:
The detailed method to quantify hERG channel inhibition by the automated patch clamp system PatchXpress® 7000A (Molecular Devices, Sunnyvale, Calif.) has been described by Guo et al.^12 In brief, Chinese hamster ovary (CHO) cells transfected with the human ether-a-go-go-related gene (hERG) was cultured in Ex-cell 302 media supplemented with 10% fetal bovine serum, 2 mM glutamine and 0.25 mg/ml geneticin and maintained in a CO2 incubator at 37° C. For patch clamp electrophysiology, the external buffer contained (in mM): 150 NaCl, 10 Hepes, 4 KCl, 1.2 CaCl2, 1 MgCl2, pH 7.4 adjusted with […] and the internal recording solution contained (in mM): 140 KCl, 6 EGTA, 5 Hepes, MgCl2, 5 ATP-Na2, pH 7.2 adjusted with KOH. Once the cell was loaded in the recording chamber and formed a giga ohm seal with the planar glass electrodes (Sealchip™), a whole-cell configuration was achieved by rupturing the cell membrane. The membrane potential was then clamped at −80 mV and the hERG channel activated by a 1-second depolarizing pulse delivered at 0.1 Hz, the hERG current was measured during the 500 ms-repolarizing pulse to −40 mV. After an acceptable hERG current recording was obtained, the cell was first exposed to 0.3% DMSO as the vehicle control, followed by the test article in three ascending, full-log interval concentrations and finally E-4031 at 1 μM (as the positive control) to block the hERG current completely. Each test article was tested on three or more cells and at concentrations up to 30 μM or the solubility limit determined the BD Gentest™ solubility scanner. The inhibition of hERG current at each concentration was normalized to that recorded in the vehicle control, and fitted with Hill equation to calculate IC20 and/or IC50.

Series [1] in a line: Detection of glutathione conjugates. It counts as in vitro ADME, human. Also on record: key: NF = in vitro no significant adduct formation relative to control. Conditions: in vitro, relative to control. An excerpt:
The assay conditions for the detection of glutathione conjugates follow the procedure described by C. M. Dieckhaus et al.^13

T1 sequence (P10635 whole entry): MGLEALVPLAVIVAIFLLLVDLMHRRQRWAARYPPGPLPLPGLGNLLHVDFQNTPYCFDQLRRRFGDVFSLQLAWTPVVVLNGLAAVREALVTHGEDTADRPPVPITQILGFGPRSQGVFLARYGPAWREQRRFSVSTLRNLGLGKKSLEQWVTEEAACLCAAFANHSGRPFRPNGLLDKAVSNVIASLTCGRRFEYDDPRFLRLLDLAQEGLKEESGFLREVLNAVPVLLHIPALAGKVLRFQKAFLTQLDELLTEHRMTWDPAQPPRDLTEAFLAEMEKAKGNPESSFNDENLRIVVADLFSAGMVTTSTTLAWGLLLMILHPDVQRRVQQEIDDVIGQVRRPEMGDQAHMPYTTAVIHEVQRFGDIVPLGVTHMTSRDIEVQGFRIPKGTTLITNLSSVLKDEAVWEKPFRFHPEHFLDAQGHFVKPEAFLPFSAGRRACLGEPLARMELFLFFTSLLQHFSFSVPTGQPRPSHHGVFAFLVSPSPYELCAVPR
T3 sequence (Q12809 whole entry): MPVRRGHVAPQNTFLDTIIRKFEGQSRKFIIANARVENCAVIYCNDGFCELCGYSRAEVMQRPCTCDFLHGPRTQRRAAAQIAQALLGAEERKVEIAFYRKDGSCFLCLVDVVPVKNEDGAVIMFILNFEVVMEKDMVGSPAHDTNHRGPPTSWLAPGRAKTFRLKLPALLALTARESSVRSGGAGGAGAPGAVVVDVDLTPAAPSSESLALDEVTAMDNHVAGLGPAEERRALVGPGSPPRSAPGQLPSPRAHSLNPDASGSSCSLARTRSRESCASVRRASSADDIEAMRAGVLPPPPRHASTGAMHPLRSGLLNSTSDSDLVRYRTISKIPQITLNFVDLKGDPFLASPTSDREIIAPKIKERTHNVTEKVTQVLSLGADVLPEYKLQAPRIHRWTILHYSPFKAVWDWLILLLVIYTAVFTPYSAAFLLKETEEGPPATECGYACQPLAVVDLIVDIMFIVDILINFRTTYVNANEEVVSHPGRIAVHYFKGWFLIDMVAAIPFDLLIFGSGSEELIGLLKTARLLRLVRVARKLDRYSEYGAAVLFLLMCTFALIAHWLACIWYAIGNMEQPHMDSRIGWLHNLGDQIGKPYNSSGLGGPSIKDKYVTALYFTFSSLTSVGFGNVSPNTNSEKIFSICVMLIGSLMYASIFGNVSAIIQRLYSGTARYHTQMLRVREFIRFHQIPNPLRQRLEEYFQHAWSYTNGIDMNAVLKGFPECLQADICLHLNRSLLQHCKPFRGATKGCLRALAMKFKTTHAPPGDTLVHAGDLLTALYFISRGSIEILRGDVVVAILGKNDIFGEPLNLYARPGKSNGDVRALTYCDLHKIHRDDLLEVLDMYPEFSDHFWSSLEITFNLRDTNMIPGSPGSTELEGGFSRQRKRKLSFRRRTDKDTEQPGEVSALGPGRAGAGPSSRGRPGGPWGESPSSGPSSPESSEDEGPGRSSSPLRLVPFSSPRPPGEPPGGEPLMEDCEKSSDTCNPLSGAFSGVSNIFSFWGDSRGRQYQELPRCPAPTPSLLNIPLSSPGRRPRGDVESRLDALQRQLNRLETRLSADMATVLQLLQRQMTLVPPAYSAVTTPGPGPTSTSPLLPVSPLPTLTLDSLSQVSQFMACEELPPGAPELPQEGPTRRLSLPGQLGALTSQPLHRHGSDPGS

With `CC#CCOc1cnc(C(=O)Nc2ccc(F)c([C@@]3(C)N=C(N)O[C@@H]4CCC(F)(F)[C@@H]43)c2)cn1` [Example 1, 5-But-2-ynyloxy-pyrazine-2-carboxylic acid [3-((4S,4aR,7aR)-2-amino-5,5-difluoro-4-methyl-4,4a,5,6,7,7a-hexahydro-cyclopenta[e][1,3]oxazin-4-yl)-4-fluoro-phenyl]-amide], the concentration for half-maximal inhibition (IC50) at CYP2D6 lay within 1 to 10 µM. Moreover, the efflux ratio at 2 h on P-gp (human MDR1) was in the range of 3 to 10. Also, the “in vivo effect (% of control)” value in “in vivo effect” was “A (A = less than 50% of control @ 30 mg/kg p.o.)”. For the same molecule, the hERG inhibition entry at hERG channel was “A (A = less than 50% inhibition @ 1 μM)”.
With `C[C@]1(c2cc(NC(=O)c3ccc(C#N)cn3)ccc2F)N=C(N)O[C@@H]2CCC(F)(F)[C@@H]21` [Example 2, 5-Cyano-pyridine-2-carboxylic acid [3-((4S,4aR,7aR)-2-amino-5,5-difluoro-4-methyl-4,4a,5,6,7,7a-hexahydro-cyclopenta[e][1,3]oxazin-4-yl)-4-fluoro-phenyl]-amide], on CYP2D6, the IC50 is more than 10 µM. Moreover, the efflux ratio at 2 h at P-gp (human MDR1) was 3 to 10. Moreover, in series [1], the “GSH human (glutathione adduct formation)” value is listed as “NF”. In addition, in the series “in vivo effect”, the “in vivo effect (% of control)” value is “A (A = less than 50% of control @ 30 mg/kg p.o.)”. Besides, on hERG channel, the hERG inhibition result is “A (A = less than 50% inhibition @ 1 μM)”.
For `C[C@]1(c2cc(NC(=O)c3ccc(C#N)cn3)ccc2F)N=C(N)O[C@@H]2CCCC(F)(F)[C@@H]21` [Example 8, 5-Cyano-pyridine-2-carboxylic acid [3-((4S,4aR,8aR)-2-amino-5,5-difluoro-4-methyl-4a,5,6,7,8,8a-hexahydro-4H-benzo[e][1,3]oxazin-4-yl)-4-fluoro-phenyl]-amide], the IC50 at CYP2D6 is more than 10 µM. Further, the “GSH human (glutathione adduct formation)” value in series [1] was “NF”. Besides, the “in vivo effect (% of control)” value in “in vivo effect” is “A (A = less than 50% of control @ 30 mg/kg p.o.)”. In addition, the hERG inhibition result at hERG channel is recorded as “A (A = less than 50% inhibition @ 1 μM)”.
